Results from EPA's ToxValDB 9.5 (doi:10.2903/j.efsa.2017.4989).
In brackets after ≈: the same amount, converted by molar mass.

Key:
Folsomia candida = conditions: chronic/long-term; mortality
Hypoaspis aculeifer = conditions: chronic/long-term; mortality
Oncorhynchus mykiss = conditions: for LC50: acute, duration: 96 hours, mortality
Tagia sp. = conditions: chronic/long-term; growth
Apis mellifera = conditions: acute, duration: 48 hours, mortality
Anas platyrhynchos = conditions: acute; oral; unspecified; mortality
Daphnia magna = conditions: chronic/long-term; duration: 21 days; reproduction
Oryctolagus sp. = conditions: developmental; development

SMILES	NOEC (Folsomia candida)	NOEC (Hypoaspis aculeifer)	LD50 (Rattus norvegicus; acute, oral, mortality)	NOAEL (Rattus norvegicus; short-term, duration: 28 days, clinical chemistry)	LC50 (Oncorhynchus mykiss)	NOEC (Tagia sp.)	NOAEL (Rattus norvegicus; short-term, duration: 28 days)	LD50 (Apis mellifera; dermal)	LD50 (Apis mellifera; oral, unspecified)	LD50 (Anas platyrhynchos)	NOEC (Daphnia magna)	LD50 (Colinus virginianus; acute, oral, mortality)	NOEL (Colinus virginianus; chronic)	LC50 (Rattus norvegicus; acute, oral, mortality)	NOAEL (Rattus norvegicus; chronic, body weight)	NOAEL (Rattus norvegicus; reproduction developmental, body weight)	NOEC (Oncorhynchus mykiss; chronic/long-term, duration: 95 days, other)	NOAEL (Oryctolagus sp.)
CO/N=C(/C(=O)O)c1ccccc1CO/N=C(\C(=O)O)c1cccc(C(F)(F)F)c1	10 mg/kg	100 mg/kg	> 2000 mg/kg-day	150 mg/kg-day	> 100 µg/mL	100 mg/kg	–	–	–	–	–	–	–	–	–	–	–	–
CO/N=C(/C(=O)O)c1ccccc1CO/N=C(/C(=O)O)c1cccc(C(F)(F)F)c1	100 mg/kg	–	> 2000 mg/kg-day	–	> 100 µg/mL	100 mg/kg	> 1000 mg/kg-day	–	–	–	–	–	–	–	–	–	–	–
CO/N=C(/C(=O)OC)c1ccccc1CO/N=C(\C)c1cccc(C(F)(F)F)c1 [Trifloxystrobin]	249 mg/kg	249 mg/kg	–	–	0.015 µg/mL (≈ 0.0367 µM)	3.5 mg/kg	–	> 100 µg/piece	> 110 µg/piece	> 2250 mg/kg-day	0.00276 mg/L	> 2000 mg/kg-day	31 mg/kg-day	> 5000 mg/kg-day	10 mg/kg-day	10 mg/kg-day	0.0043 mg/L	50 mg/kg-day
